# Test results from patent US7759350B2, “Pyrimidine carboxamides” (Orchid Research Laboratories Ltd., priority 2005, dated 2010).
# Legend:
# TNF-α = assay: LPS induced sepsis for measurement of TNF-α inhibition in mice; assay type: in vivo; details: 50 mg/kg bw oral; female Swiss albino mice; serum 90 minutes after LPS
# Experimental: LPS Induced Sepsis for Measurement of TNF-α Inhibition in Mice
# The LPS induced sepsis model in mice was performed as described by Les sekut et al (J Lab Clin Med 1994; 124:813-20). Female Swiss albino mice were selected with their body weights being equivalent within each group. The mice were fasted for 20 hours with free access to water. The mice were dosed orally with the test compound suspended in vehicle containing 0.5% Tween 80 in 0.25% Carboxy-methylcellulose sodium salt. The control mice were administered the vehicle alone. After 30 minutes of oral dosing, the mice were injected with 500 μg of Lipopolysaccharide (Escherichia coli, LPS: B4 from Sigma) in phosphate buffer saline solution into the intraperitoneal cavity of the mice. After 90 minutes of LPS administration, the mice were bled via retro-orbital sinus puncture. Blood samples were stored overnight at 4° C. Serum samples were collected by centrifuging the samples at 4000 rpm for 15 minutes at 4° C. Immediately the serum samples were analysed for TNF-α levels, using commercially available mouse TNF-α ELISA kit (Amersham Biosciences) and assay was performed by the manufacturer instruction.
# [1] = target: purified recombinant COX-1 enzyme (Homo sapiens, UniProt P23219); assay: COX-1 enzyme based assay; assay type: biochemical; details: Conc. 10 μM
# purified recombinant COX-1 enzyme, sequence (P23219 24-599): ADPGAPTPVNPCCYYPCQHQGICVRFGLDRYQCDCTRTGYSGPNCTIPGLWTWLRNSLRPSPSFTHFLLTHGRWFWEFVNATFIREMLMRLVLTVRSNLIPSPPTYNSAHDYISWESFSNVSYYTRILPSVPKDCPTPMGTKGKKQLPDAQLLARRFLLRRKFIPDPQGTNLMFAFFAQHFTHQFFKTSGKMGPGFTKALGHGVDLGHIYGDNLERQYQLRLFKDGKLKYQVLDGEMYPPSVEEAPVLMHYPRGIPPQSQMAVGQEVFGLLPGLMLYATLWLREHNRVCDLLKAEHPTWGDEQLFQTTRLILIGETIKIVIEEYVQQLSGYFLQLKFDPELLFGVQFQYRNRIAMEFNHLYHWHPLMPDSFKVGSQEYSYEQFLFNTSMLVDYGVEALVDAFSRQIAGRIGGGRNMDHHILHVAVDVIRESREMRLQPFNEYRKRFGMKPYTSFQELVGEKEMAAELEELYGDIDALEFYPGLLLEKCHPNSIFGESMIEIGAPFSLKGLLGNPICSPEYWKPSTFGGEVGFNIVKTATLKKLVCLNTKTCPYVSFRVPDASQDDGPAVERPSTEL
# Experimental: (§1) COX-1 and COX-2 Enzyme Based Assay
# (§2) COX-2 enzyme based assays were carried out to check the inhibitory potential of test compounds on the production of prostaglandin by purified recombinant COX-1/COX-2 enzyme (Proc. Nat. Acad. Sci. USA, 88, 2692-2696, 1991; Clin. Immunoassay 15, 116-120, 1992) In this assay, the potential of the test compound to inhibit the production of prostaglandin either by COX-1 or COX-2 from arachidonic acid (substrate) was measured. This was an enzyme based in-vitro assay to evaluate selective COX inhibition with good reproducibility.
# (§3) Arachidonic acid was converted to PGH2 (Intermediate product) by COX1/COX-2 in presence or absence of the test compound. The reaction was carried out at 37° C. and after 2 minutes it was stopped by adding 1M HCl. Intermediate products PGH2 was converted to a stable Prostanoid product PGF2α by SnCl2 reduction. The amount of PGF2α produced in the reaction was inversely proportional to the COX inhibitory potential of the test compound. The prostanoid product was quantified via enzyme immunoassay (EIA) using a broadly specific antibody that binds to all the major forms of Prostaglandin, using Cayman ELISA kit as per the procedure outlined by the manufacturer Cayman Chemicals, Ann Arbor, USA).
# [2] = target: T1, purified recombinant COX-2 enzyme (Homo sapiens, UniProt P35354); assay: COX-2 enzyme based assay; assay type: biochemical; details: Conc. 10 μM
# T1 sequence (P35354 18-604): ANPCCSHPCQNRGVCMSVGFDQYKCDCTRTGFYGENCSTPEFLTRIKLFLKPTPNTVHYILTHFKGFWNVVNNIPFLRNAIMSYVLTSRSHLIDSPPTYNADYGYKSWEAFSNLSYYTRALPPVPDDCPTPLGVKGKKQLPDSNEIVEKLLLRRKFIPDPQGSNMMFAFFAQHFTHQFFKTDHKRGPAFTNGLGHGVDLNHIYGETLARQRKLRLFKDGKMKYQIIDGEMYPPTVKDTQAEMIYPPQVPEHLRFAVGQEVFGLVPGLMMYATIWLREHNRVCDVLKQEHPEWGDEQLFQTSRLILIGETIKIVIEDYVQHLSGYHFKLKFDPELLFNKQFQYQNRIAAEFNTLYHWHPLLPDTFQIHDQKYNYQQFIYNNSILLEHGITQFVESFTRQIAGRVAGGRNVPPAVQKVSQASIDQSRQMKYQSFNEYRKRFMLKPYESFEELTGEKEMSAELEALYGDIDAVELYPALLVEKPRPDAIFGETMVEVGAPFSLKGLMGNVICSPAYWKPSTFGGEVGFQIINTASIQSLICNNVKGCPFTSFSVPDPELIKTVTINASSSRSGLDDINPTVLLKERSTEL
# Experimental: as §1, §2, §3
structure (smiles),measurement,setting,value
"CNc1nc(-c2ccncc2)nc(SC)c1C(=O)Nc1ccc(OC)cc1 [Example 14, N-(4-Methoxyphenyl)-4-(methylamino)-6-(methylthio)-2-pyridin-4-ylpyrimidine-5-carboxamide]",TNF-α Inhibition (%) at 50 mg/kg bw,TNF-α,18.74%
same,COX-1 Inhibition (%),[1],Not Active
same,inhibition at 10 µM,[2],11.4%
